Test results published in patent publication US10682388B2, “Targeting of PELP1 in cancer therapy” (THE BOARD OF REGENTS OF THE UNIVERSITY OF TEXAS SYSTEM, priority 2014, dated 2020).

How the values were obtained:
[1] = molecular target: T1, PELP1, G9a and ERα complex (Homo sapiens, UniProt Q8IZL8); test: Competition assay for the complex of PELP1, G9a and ERα; format: binding; conditions: FIG. 2C
T1 construct: purified bacterial, full-length PELP1; host or cells: bacteria (PELP1)
Method: FIGS. 2A-D. (FIG. 2A) Immunoprecipitation was performed on nuclear lysates obtained from […]1 cells grown in 5% DCC for 72 hours and treated with estradiol 10^-7 M for 12 hours. PELP1 was immunoprecipitated and western blotting was performed for PELP1 and G9a expression with IgG as the control. (FIG. 2B) Various fragments of PELP1 bound to glutathione beads were incubated with recombinant G9a for 2 hours. Beads were washed, run on an SDS-PAGE gel and immunoblotted for G9a expression. GST tag alone is shown as control. (FIG. 2C) Recombinant G9a-GST was bound to glutathione beads and incubated with purified PELP1 and peptides for 2 hours. Beads were washed and run on SDS-PAGE gel. (FIG. 2D) ZR75 cells were transfected with ERE-luciferase, PELP1 and/or G9a plasmids and treated with peptide for 24 hours and estradiol 10^-7 M for 12 hours. Relative luciferase activity is shown. Peptides were linked to EZ-Link NHS-Biotin (Thermo Scientific) per manutfacturer's protocol. […] Beads were washed 3× with IP buffer (20 mM HEPES pH 7.9, 20% glycerol, 0.1% triton-x, 100 mM KCl), eluted with SDS-dye, and PELP1 expression was determined by western blotting. […]

[2] = tested on: ZR75PELP1KD and MCF7PEP1KD cells; test: MTT proliferation assay in PELP1 knockdown cells; format: cell-based, Human; conditions: increasing doses 10, 20, or 50 μM, day 7, FIGS. 8A-B
Method: FIGS. 8A-C. (FIG. 8A) ZR75PELP1KD cells were treated in triplicate with TAT or PIP1 (10, 20, or 50 μM) every 3 days and proliferation was measured by MTT assay on day 7. (FIG. 8B) MCF7PELP1KD cells were treated in triplicate with TAT or PIP1 (10, 20, or 50 μM) every 3 days and proliferation was measured by MTT assay on day 7. (FIG. 8C) MDAMB231 and MDAMB468 cells were treated in triplicate with TAT or PIP1 (10 μM) every 3 days and proliferation was measured by MTT assay on day 7. Cell proliferation rates were measured by using MTT Cell Viability Assay in 96-well plates. Model cells were seeded in 96-well plates (1×10^3 cells/well) in DMEM or RPMI medium containing 10% serum. After an overnight incubation, cells were treated with varying concentrations of the peptides for 3-7 days and growth inhibition was determined by using traditional MTT assay (Sigma) following manufacturer's instructions.

ZR75 cells = test: Estrogen-mediated growth, MTT assay; format: cell-based, Human; conditions: ZR75 cells stimulated with estradiol, FIG. 4C
Method: FIGS. 4A-E. (FIG. 4A) ZR75vec, ZR75PELP1, MCF7vec and MCF7PELP1 cells were treated in triplicate with TAT, PIP1 or PIP1 deletions (Del1, Del2, Del3) at 10 uM every 3 days and proliferation was measured by MTT assay on day 7. (FIG. 4B) ZRPELP1 cells were transfected with ERE-luciferase and treated with TAT, PIP1, or PIP2 for 24 hours and with estradiol for 12 hours. Relative luciferase activity was measured in triplicate. (FIG. 4C) ZR75 cells were grown in 5% DCC media for 72 hours, treated with TAT or PIP1 every 3 days, and treated with estradiol 10^−7 M for 12 hours. Proliferation was measured in triplicate on day 7 by MTT assay at 595 nm. (FIG. 4D) MCF7-Letrozole resistant cells were grown in 5% DCC media for 72 hours, treated with TAT, PIP1 or PIP2 every 3 days, and letrozole or estradiol 10^−7 M for 12 hours. Proliferation was measured in triplicate on day 7 by MTT assay at 595 nm. […] Proliferation was measured in triplicate on day 7 by MTT assay at 595 nm.
Cell proliferation rates were measured by using MTT Cell Viability Assay in 96-well plates. […] After an overnight incubation, cells were treated with varying concentrations of the peptides for 3-7 days and growth inhibition was determined by using traditional MTT assay (Sigma) following manufacturer's instructions.

[3] = tested on: ZRPELP1 and MCF7-PELP1 cells; test: Mammosphere formation assay; format: cell-based, Human; conditions: 10 μM and 20 μM, FIG. 12
Method: FIG. 12. Effect of PIP1 on mammosphere formation. Single-cell suspensions of ZR75-PELP1 were plated in triplicate wells at a density of 10,000 cells per ml in mammosphere medium in non-adherent plates. Cultures were treated with indicated concentration of PIP1 and mammospheres were counted after 7 days. ZR75PELP1 and MCF7PELP1 cells were FACS sorted for CD44-APC^high (Milteny Biotec) and CD24-PE^low (Milteny Biotec) cell surface markers. A single cell suspension of model cells ZR75-PELP1 were seeded in mammosphere media in a low adherent 96-well plate with TAT or PIP (10, 20 or 50 μM). Media containing peptide was added on day 4 and mammospheres were counted and imaged on day 8 (Shaw et al., 2012).

T1 sequence (Q8IZL8 2-1130, one chain of several): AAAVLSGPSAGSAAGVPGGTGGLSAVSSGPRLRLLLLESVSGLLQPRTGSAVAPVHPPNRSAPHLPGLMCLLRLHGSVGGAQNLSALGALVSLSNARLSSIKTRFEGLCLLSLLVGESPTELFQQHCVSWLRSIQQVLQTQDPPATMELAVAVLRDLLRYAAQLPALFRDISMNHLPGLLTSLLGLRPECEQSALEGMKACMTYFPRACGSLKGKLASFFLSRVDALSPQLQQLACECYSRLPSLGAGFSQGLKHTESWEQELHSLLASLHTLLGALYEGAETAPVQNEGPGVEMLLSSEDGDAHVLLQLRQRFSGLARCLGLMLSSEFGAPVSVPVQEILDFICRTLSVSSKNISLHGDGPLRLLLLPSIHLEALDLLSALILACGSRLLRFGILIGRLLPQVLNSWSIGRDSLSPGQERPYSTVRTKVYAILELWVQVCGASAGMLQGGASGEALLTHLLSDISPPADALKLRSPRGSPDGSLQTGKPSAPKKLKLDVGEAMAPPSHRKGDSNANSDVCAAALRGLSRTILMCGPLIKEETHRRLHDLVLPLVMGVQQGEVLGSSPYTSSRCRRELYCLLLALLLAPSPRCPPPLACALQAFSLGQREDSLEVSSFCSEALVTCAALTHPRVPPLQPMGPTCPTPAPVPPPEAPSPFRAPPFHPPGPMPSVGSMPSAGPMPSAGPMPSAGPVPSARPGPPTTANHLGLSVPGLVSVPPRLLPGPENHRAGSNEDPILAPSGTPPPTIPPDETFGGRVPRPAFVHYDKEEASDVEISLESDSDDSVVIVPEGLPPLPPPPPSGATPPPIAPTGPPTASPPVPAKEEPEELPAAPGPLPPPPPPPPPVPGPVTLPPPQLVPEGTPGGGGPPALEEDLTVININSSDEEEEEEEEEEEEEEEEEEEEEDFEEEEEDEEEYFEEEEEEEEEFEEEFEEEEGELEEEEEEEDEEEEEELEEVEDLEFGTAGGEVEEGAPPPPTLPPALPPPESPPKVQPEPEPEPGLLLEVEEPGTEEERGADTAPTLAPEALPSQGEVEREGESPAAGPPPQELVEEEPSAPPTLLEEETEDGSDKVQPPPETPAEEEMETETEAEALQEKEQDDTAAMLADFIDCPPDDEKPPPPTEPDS

Question: With GRKKRRQRRRGGMVEFRWSCPGRRKAKA [PIP1] as the sequence, how does the “formation of PELP1, G9a and ERα complex” value [1] read?
Answer: prevents the three proteins from forming a complex

Question: And the “proliferation in PELP1 knockdown cells” value [2]?
Answer: only saw an effect at very high concentrations

Question: What about the estrogen-mediated growth (ZR75 cells) of the same sequence?
Answer: inhibition of the estrogen-mediated growth

Question: What about the number of mammospheres [3] of the same sequence?
Answer: significant decrease in the number of mammospheres

Question: And the “size of the mammospheres” value [3]?
Answer: substantially decreased
